From patent US20040191297A1, “Carotenoid formulation” (priority 1997, published 2004)
Values joined by “and” are separate entries in the source; they are usually repeats but may differ in a detail not shown here. Equal values may be shown once.

Key:
[1] = Concentration of lycopene in rat lung; assay type: in vivo, Fischer 344 rats
Description: Extraction of lycopene from diet was as follows: A sample of diet containing lycopene was suspended in the injection solvent (Table 4) and homogenized in a polytron homogenizer. Echinenone was added as an internal standard and the mixture centrifuged at 3000 rpm at 4° C. for 15 minutes. The supernatant was decanted and saved and the extraction repeated. The pooled extracts were then dried under N2 gas at 60° C. and the residue dissolved in 0.5 ml injection solvent and then subjected to HPLC analysis. The same method, with minor variations, was used for feces and for lung tissue. The efficiency of lycopene extraction from the diet is shown in Table 6 A&B. At any concentration tested the efficiency ranged from 75% at the highest concentration to 100% for the lowest concentration of lycopene.
homogenized. […] This hexane extraction procedure was repeated 5-7 times.

α-tocopherol [2] = test: Liver vitamin E assay; assay type: in vivo, Fischer 344 rats
α-tocopherol [3] = test: Liver vitamin E assay; assay type: in vivo, Fischer 344 rats; details: for Liver α-tocopherol: female
From the text: (§1) The effect of the tomato carotenoid supplement on the absorption and storage of two important fat soluble vitamins, namely, retinol and α-tocopherol, was investigated. Using established HPLC methods, a strong liner dose-response relationship was found between the lycopene content of the liver and both retinol and a-tocopherol concentration in female R-344 rats (Table 23).

retinol = test: Liver vitamin A assay; assay type: in vivo, Fischer 344 rats; details: for Liver retinol: female
From the text: as §1

in vivo = details: Fischer 344, rat
Description: Breast, liver and prostate tissue contain lipids which interfere with the assay. Consequently, a saponification step was required prior to organic extraction. Tissue was homogenized in 20 ml methanol to which echinenone was added as internal standard. For breast tissue, which comprise of 85% adipocytes, 8.0 ml 50% NaOH and 4.0 ml 25% sodium ascorbate was added and the mixture was homogenized. For prostate and liver tissue, which contain less lipid, 4.0 ml and 50% NaOH. and 2.0 ml sodium ascorbate were added and the mixture was
homogenized. Saponification was carried out in 50 ml tubes saturated with N2 gas overnight in a temperature controlled shaker bath at 30° C. Following saponification, 10 ml hexane was add d to each tube and vortexed for 1 minute. The mixture was then centrifuged at 2000 rpm for 10 min at 4° C. and the hexane layer was decanted and saved. This hexane extraction procedure was repeated 5-7 times. The pooled hexane extract was then dried under N2 gas at 60° C., dissolved in injection solvent and analyzed by HPLC. Lung and colon tissue were processed in an identical manner with the exception that the saponification step was omitted.

[4] = Stability of lycopene incorporated into AIN-76A diet at ambient temperature in food cup (air and light); assay type: physicochemical; details: for Concentration: ambient temperature
Description: At various time points, a diet sample was taken and lycopene was extracted as follows: Approximately 0.5 to 1.0 g of sample was added to a 15 ml volume of extraction solvent consisting of 40% acetonitrile, 20% hexane, 20% methanol and 20% methylenechloride. The mixture was sonicated for 2 minutes and allowed to stand for 5 minutes. The reddish-orange clear supernatant was then decanted. This process was repeated 4 times, at which time the supernatant was colorless. Solvent was then added to a volume of 25 to 100 ml, the mixture centrifuged, and the supernatant decanted. All supernatants were then mixed. The above solvent serves two purposes; first, it is the most efficient mixture for lycopene, and second, it is the same solvent used for injecting lycopene samples into the HPLC.
The second was by exposing the lycopene-containing diet to air and light, as is the case in an actual feeding study. The stability of lycopene in the food cup where it is exposed to light and air is seen in Table 9.

glutathione = test: Total glutathione assays of blood, liver and kidney; assay type: in vivo, Fischer 344 rats
From the text: The rationale for measuring glutathione is that the reduced form of the tripeptide thiol, glutathione (Glu-Cys-Gly), participates directly in several key intracellular reactions, including protection against free radical damage. In contrast to carotenoids, which reside in the lipid phase, glutathione is found in the aqueous phase of the cell and there is evidence that lipid and aqueous phase anti-oxidants may interact with one another in such a manner that high levels of one may “spare” or limit the deletion of the other. Total (reduced and oxidized) glutathione assays of blood, liver and kidney (Tables 20-22) were conducted.
The determination of glutathione was by HPLC with dual electrochemical detection (see Kleinman, W. A. & Richie, J. P., J. Chromatogr B 672:73-80, 1995). only 1 case, at the highest lycopene level, was there a significant increase in glutathione levels and this occurred only in the liver.

[5] = female rat, Group 1, 1280 in diet
[6] = female rat, Group 2, 512 in diet
[7] = female rat, Group 3, 256 in diet
[8] = female rat, Group 4, 128 in diet
[9] = female rat, Group 5, 51 in diet
[10] = male rat, Group 1, 1280 in diet
[11] = Group 1, lycopene 1280 mg/kg diet
[12] = Group 3, lycopene 256 mg/kg diet
[13] = Group 4, lycopene 128 mg/kg diet
[14] = Group 5, lycopene 51 mg/kg diet

With `CC(C)=CCC/C(C)=C/C=C/C(C)=C/C=C/C(C)=C/C=C/C=C(C)/C=C/C=C(C)/C=C/C=C(\C)CCC=C(C)C` [Lycopene] the “Concentration of lycopene in lung, average” value (from here on “Concentration … average”) [1, 5] was 227 ngs/gm, the “Concentration of lycopene in lung, individual” value (from here on “Concentration … individual”) [1, 5] was 184 ngs/gm and 270 ngs/gm and the “Concentration … average” value [1, 6] was 246 ngs/gm. For the same compound, the “Concentration … individual” value [1, 6] was 211 ngs/gm and 280 ngs/gm, the “Concentration … average” value [1, 7] was 193 ngs/gm and the “Concentration … individual” value [1, 7] was 243 ngs/gm and 142 ngs/gm. For the same compound, the “Concentration … average” value [1, 8] was 211 ngs/gm, the “Concentration … individual” value [1, 8] was 208 ngs/gm and 214 ngs/gm and the “Concentration … average” value [1, 9] was 134 ngs/gm. The “Concentration … individual” value [1, 9] was 144 ngs/gm and 124 ngs/gm, the “Concentration … average” value [1, 10] was 190 ngs/g and the “Concentration … individual” value [1, 10] was 193 ngs/g and 187 ngs/g. The “Concentration … average” value ([1]; male rat, Group 2, 512 in diet) was 214 ngs/g, the “Concentration … individual” value ([1]; male rat, Group 2, 512 in diet) was 170 ngs/g and 257 ngs/g and the “Concentration … average” value ([1]; male rat, Group 3, 256 in diet) was 375 ngs/g. For the same compound, the “Concentration … individual” value ([1]; male rat, Group 3, 256 in diet) was 325 ngs/g and 424 ngs/g, the “Concentration … average” value ([1]; male rat, Group 4, 128 in diet) was 201 ngs/g and the “Concentration … individual” value ([1]; male rat, Group 4, 128 in diet) was 239 ngs/g and 162 ngs/g. The “Concentration … average” value ([1]; male rat, Group 5, 51 in diet) was 151 ngs/g, the “Concentration … individual” value ([1]; male rat, Group 5, 51 in diet) was 167 ngs/g and 135 ngs/g and the “Liver α-tocopherol” value (α-tocopherol [2]; female, Group 2, lycopene 512 mg/kg diet) was 38 μg/gm. For the same compound, the “Liver α-tocopherol” value (α-tocopherol [2]; male, Group 7, lycopene 1280 mg/kg diet) was 28 μg/gm, the “Liver α-tocopherol” value (α-tocopherol [2]; male, Group 8, lycopene 512 mg/kg diet) was 8 μg/gm and the “Liver α-tocopherol” value (α-tocopherol [2]; male, Group 9, lycopene 256 mg/kg diet) was 23 μg/gm. For the same compound, the “Liver α-tocopherol” value (α-tocopherol [2]; male, Group 11, lycopene 51 mg/kg diet) was 14 μg/gm, the “difference in liver α-tocopherol between controls and the highest lycopene dose” value (α-tocopherol [3]; female rats) was 4 fold and the “Liver α-tocopherol” value (α-tocopherol [3]; [11]) was 47 μg/gm. For the same compound, the “Liver α-tocopherol” value (α-tocopherol [3]; [12]) was 39 μg/gm, the “Liver α-tocopherol” value (α-tocopherol [3]; [13]) was 46 μg/gm and the “Liver α-tocopherol” value (α-tocopherol [3]; [14]) was 32 μg/gm. The “difference in liver retinol between controls and the highest lycopene dose” value (retinol; female rats) was 10 fold, the Liver retinol (retinol; [11]) was 1302 μg/gm and the Liver retinol (retinol; Group 2, lycopene 512 mg/kg diet) was 768 μg/gm. It also gave a Liver retinol (retinol; [12]) of 858 μg/gm, a Liver retinol (retinol; [13]) of 888 μg/gm and a Liver retinol (retinol; [14]) of 555 μg/gm. The Kp (in vivo) was 100 to 1000, the “stability in the diet” value ([4]; 7 days at ambient light and temperature) was “stable” and the Concentration ([4]; AIN-76A diet, 0 days in food cup) was 744 µg/g. For the same compound, the Concentration ([4]; 2 days in food cup) was 702 µg/g, the Concentration ([4]; 3 days in food cup) was 616 µg/g and the Concentration ([4]; 6 days in food cup) was 547 µg/g. For the same compound, the Concentration ([4]; 7 days in food cup) was 439 µg/g, the Concentration ([4]; 9 days in food cup) was 624 µg/g and the Concentration ([4]; 10 days in food cup) was 576 µg/g. For the same compound, the Concentration ([4]; 13 days in food cup) was 449 µg/g, the Concentration ([4]; 14 days in food cup) was 419 µg/g and the Concentration ([4]; 15 days in food cup) was 425 µg/g. The Concentration ([4]; 17 days in food cup) was 431 µg/g, the Concentration ([4]; 20 days in food cup) was 385 µg/g and the Concentration ([4]; 21 days in food cup) was 376 µg/g. For the same compound, the “original lycopene no longer measurable” value ([4]; food cup, air and light, 3 weeks) was “one-half”, the lycopene lost ([4]; food cup, air and light, 48-hour period) was “a small amount is lost” and the total lycopene lost ([4]; food cup, air and light, 72 hours) was “approximately 20%”. For the same compound, the Kidney glutathione (glutathione; female, lycopene 51 ppm) was 0.900 ± 0.101^ μmol/g, the Liver glutathione (glutathione; female, lycopene 51 ppm) was 6.01 ± 0.309 µmol/g and the Whole blood glutathione (glutathione; female, lycopene 51 ppm) was 0.832 ± 0.158^+ μmol/g. For the same compound, the Kidney glutathione (glutathione; female, lycopene 128 ppm) was 0.950 ± 0.0758^ μmol/g, the Liver glutathione (glutathione; female, lycopene 128 ppm) was 6.54 ± 1.09^+ μmol/g and the Whole blood glutathione (glutathione; female, lycopene 128 ppm) was 0.890 ± 0.202 µmol/g. The Kidney glutathione (glutathione; female, lycopene 256 ppm) was 1.030 ± 0.414^+ μmol/g, the Liver glutathione (glutathione; female, lycopene 256 ppm) was 4.87 ± 1.14 µmol/g and the Whole blood glutathione (glutathione; female, lycopene 256 ppm) was 0.848 ± 0.0988 µmol/g. For the same compound, the Kidney glutathione (glutathione; female, lycopene 512 ppm) was 1.090 ± 0.163^+ μmol/g, the Liver glutathione (glutathione; female, lycopene 512 ppm) was 5.88 ± 0.492 µmol/g and the Whole blood glutathione (glutathione; female, lycopene 512 ppm) was 0.930 ± 0.123 µmol/g. For the same compound, the Kidney glutathione (glutathione; female, lycopene 1280 ppm) was 0.089 ± 0.045^+ μmol/g, the Liver glutathione (glutathione; female, lycopene 1280 ppm) was 7.38 ± 0.705^+ μmol/g and the Whole blood glutathione (glutathione; female, lycopene 1280 ppm) was 1.080 ± 0.104 µmol/g. For the same compound, the “dose-related changes in glutathione” value (glutathione; liver, kidney or whole blood) was “No dose-related changes”, the Kidney glutathione (glutathione; male, lycopene 51 ppm) was 0.688 ± 0.316 µmol/g and the Liver glutathione (glutathione; male, lycopene 51 ppm) was 6.77 ± 1.53 µmol/g. It also gave a Whole blood glutathione (glutathione; male, lycopene 51 ppm) of 1.030 ± 0.0387 µmol/g, a Kidney glutathione (glutathione; male, lycopene 128 ppm) of 0.686 ± 0.170 µmol/g and a Liver glutathione (glutathione; male, lycopene 128 ppm) of 5.38 ± 0.363 µmol/g. The Whole blood glutathione (glutathione; male, lycopene 128 ppm) was 0.920 ± 0.169 µmol/g, the Kidney glutathione (glutathione; male, lycopene 256 ppm) was 0.624 ± 0.104 µmol/g and the Liver glutathione (glutathione; male, lycopene 256 ppm) was 4.59 ± 1.37 µmol/g. For the same compound, the Whole blood glutathione (glutathione; male, lycopene 256 ppm) was 0.910 ± 0.106 µmol/g, the Kidney glutathione (glutathione; male, lycopene 512 ppm) was 0.854 ± 0.055^+ μmol/g and the Whole blood glutathione (glutathione; male, lycopene 512 ppm) was 0.990 ± 0.141 µmol/g. For the same compound, the Kidney glutathione (glutathione; male, lycopene 1280 ppm) was 0.828 ± 0.128^+ μmol/g, the Liver glutathione (glutathione; male, lycopene 1280 ppm) was 7.16 ± 1.95^+ μmol/g and the Whole blood glutathione (glutathione; male, lycopene 1280 ppm) was 0.948 ± 0.294 µmol/g.
